Test results taken from patent US20090270448A1, “PHARMACEUTICAL FORMULATIONS COMPRISING CLOPIDOGREL” (ACINO PHARMA AG, priority 2006, published 2009).
Counter-ions that a name gives are not always drawn.

Tests used:
[1] = Storage stability of clopidogrel besylate and melt granulates containing it (HPLC impurities); format: physicochemical
Method: The stability on storage of clopidogrel besylate salt (CLO.Bes) is examined in comparison to melt granulates containing it. The main degradation product is alpha-(2-chlorophenyl)-4,5,6,7-tetrahydrothieno[3,2-c]pyridine-5-acetic acid, hereinafter designated as “ImpA” (ImpA is named according to USP 29 and corresponds to the hydrolysis product of Clopidogrel). In addition, the sum of all impurities (“SumImp”) is determined. Both ImpA and SumImp are expressed as percent by weight of the amount of the clopidogrel salt at the beginning of the experiment on day 0 and are determined using the HPLC-system described below.
In the below Table 1 for example the term “10% PEG 6000” means the melt granulate consisting of 10% by weight PEG 6000 and 90% by weight clopidogrel besylate, 30% PEG 6000 means the melt granulate consisting of 30% by weight PEG 6000 and 70% by weight clopidogrel besylate, etc.
The above-mentioned HPLC system is as follows:
Column: 250 mm×4.6 mm Modulo-Cart QS Uptisphere HDO, 3 μm
Detector: UV Detector or DAD Detector
Eluent A: 0.01M sodium phosphate dibasic aqueous solution (1.78 g Na2HPO4*2H2O/l), adjusted to pH 3.0±0.05 with phosphoric acid 85%
Mobile phase: 35% Eluent A+65% Eluent B
Preparation of Reference and Sample Solutions:
Approximately 55.92 mg of clopidogrel besilate reference substance are weighed into a 50 ml volumetric flask. Add 20 ml of mobile phase and sonicate in an ultrasonic bath at ambient temperature until the substance is dissolved (approx. 5 min). Make up to the mark with mobile phase. The concentration of clopidogrel besilate is 0.75 mg/ml as free base. Two independent reference solutions are prepared.
Sample Solution for 75 mg Tablets
Weigh 10 tablets and transfer them quantitatively into a 250 ml volumetric flask. Dissolve and make up to the mark with mobile phase. Dilute 25.0 ml to 100.0 ml with mobile phase. Filter through a 0.45 μm PTFE-filter in a HPLC vial. The concentration of clopidogrel is 0.75 mg/ml as free base. Two independent sample solutions are prepared.

[2] = Storage stability of clopidogrel hydrochloride and melt granulates containing it (HPLC impurities); format: physicochemical
Method: The stability on storage of clopidogrel hydrochloride salt (CLO.HCl) has been examined in comparison to melt granulates containing it. The main degradation product is alpha-(2-chlorophenyl)-4,5,6,7-tetrahydrothieno[3,2-c]pyridine-5-acetic acid, hereinafter designated as “ImpA” (impurity acid). In addition, the sum of all impurities (“SumImp”) is determined by HPLC analogously as described above for clopidogrel besylate. Both ImpA and SumImp are expressed as percent by weight of the amount of the clopidogrel salt at the beginning of the experiment on day 0. The granulates mentioned in the below Table 2 are melt granulates consisting of 50% by weight of PEG 6000 and 50% clopidogrel hydrochloride, and 50% Compritol 888 ATO and 50% clopidogrel hydrochloride, respectively.

[3] = Day 0, percent by weight of the clopidogrel salt at day 0, HPLC
[4] = Day 15 at 50° C. and 75% relative humidity
[5] = Day 30 at 40° C. and 75% relative humidity

Compound | ImpA [%] [1, 3] [%] | SumImp [%] ([1]; Day 0, sum of all impurities, percent by weight of the clopidogrel salt at day 0, HPLC) | ImpA [%] [1, 4] [%] | SumImp [%] [1, 4] [%] | SumImp [%] ([2]; Day 0) | ImpA [%] [2, 3] [%] | ImpA [%] [2, 5] [%] | SumImp [%] [2, 5] [%] | impurities relative to clopidogrel hydrochloride stabilized in the melt granulates ([2]; after storage for 30 days at 40° C. and 75% relative humidity)
COC(=O)[C@H](c1ccccc1Cl)N1CCc2sccc2C1 [CLO•Bes, clopidogrel besylate] | 0.09 | 0.24 | 0.34 | 0.52 | – | – | – | – | –
COC(=O)[C@H](c1ccccc1Cl)N1CCc2sccc2C1 [CLO•HCl, clopidogrel hydrochloride] | – | – | – | – | 0.58 | 0.18 | 1.28 | 1.99 | nearly twice as much impurities
